In ChEMBL document CHEMBL4476883, “Hydroxy formamide derivatives and their use” (2017):

Legend:
[1] = Reduction in PICP levels in human cardiac fibroblasts incubated for 24 to 48 hrs by ELISA; type: functional
Tolloid-like protein 2 = target: T1, Tolloid-like protein 2 (Homo sapiens, UniProt Q9Y6L7); experiment: Inhibition of C-terminal Avi-6x-His epitope tagged and N-terminal human RAGE signal sequence tagged recombinant human TLL2 (26 to 1015 amino acids) expressed in CHOE1A cells incubated for 60 mins with promyostatin peptide substrate by FRET based assay; type: cell-based
T1 sequence (Q9Y6L7 whole entry): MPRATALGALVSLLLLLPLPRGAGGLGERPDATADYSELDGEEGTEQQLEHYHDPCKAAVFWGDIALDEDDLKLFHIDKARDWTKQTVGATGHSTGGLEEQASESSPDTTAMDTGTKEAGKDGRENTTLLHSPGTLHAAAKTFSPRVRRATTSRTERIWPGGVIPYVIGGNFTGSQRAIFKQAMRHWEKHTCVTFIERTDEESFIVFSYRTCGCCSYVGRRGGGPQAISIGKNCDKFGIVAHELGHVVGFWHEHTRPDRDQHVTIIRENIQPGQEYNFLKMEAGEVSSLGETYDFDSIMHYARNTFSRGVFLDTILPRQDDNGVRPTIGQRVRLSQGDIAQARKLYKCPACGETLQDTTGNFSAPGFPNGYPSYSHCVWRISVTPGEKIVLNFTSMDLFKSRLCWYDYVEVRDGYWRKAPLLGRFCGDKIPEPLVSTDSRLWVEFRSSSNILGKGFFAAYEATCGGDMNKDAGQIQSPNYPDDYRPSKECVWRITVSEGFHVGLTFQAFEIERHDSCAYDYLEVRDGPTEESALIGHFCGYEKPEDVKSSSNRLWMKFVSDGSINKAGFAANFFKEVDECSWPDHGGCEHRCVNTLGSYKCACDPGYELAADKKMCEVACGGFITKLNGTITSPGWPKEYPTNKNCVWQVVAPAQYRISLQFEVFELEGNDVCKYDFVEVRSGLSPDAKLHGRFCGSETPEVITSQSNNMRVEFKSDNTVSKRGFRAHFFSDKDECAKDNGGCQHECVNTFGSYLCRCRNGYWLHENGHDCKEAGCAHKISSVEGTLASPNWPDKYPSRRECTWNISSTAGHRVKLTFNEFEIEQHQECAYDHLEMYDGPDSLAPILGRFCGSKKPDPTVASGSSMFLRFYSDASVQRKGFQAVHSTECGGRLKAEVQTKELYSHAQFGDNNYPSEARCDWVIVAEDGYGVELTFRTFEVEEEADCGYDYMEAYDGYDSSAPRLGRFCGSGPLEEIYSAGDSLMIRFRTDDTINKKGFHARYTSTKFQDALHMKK

[2] = Reduction in mature collagen deposition levels in human cardiac fibroblasts incubated for 24 to 48 hrs by immunostaining based assay; type: functional
[3] = target: T2, Bone morphogenetic protein 1 (Homo sapiens, UniProt P13497); experiment: Inhibition of C-terminal FLAG-6x-His epitope tagged and N-terminal human RAGE signal sequence tagged human BMP1 (23 to 721 amino acids) expressed in CHO-E1A cells pre-incubated for 10 mins before promyostatin peptide substrate addition and measured after 60 mins using 0.5 nM BMP1 by FRET based assay; type: cell-based
T2 sequence (P13497 whole entry): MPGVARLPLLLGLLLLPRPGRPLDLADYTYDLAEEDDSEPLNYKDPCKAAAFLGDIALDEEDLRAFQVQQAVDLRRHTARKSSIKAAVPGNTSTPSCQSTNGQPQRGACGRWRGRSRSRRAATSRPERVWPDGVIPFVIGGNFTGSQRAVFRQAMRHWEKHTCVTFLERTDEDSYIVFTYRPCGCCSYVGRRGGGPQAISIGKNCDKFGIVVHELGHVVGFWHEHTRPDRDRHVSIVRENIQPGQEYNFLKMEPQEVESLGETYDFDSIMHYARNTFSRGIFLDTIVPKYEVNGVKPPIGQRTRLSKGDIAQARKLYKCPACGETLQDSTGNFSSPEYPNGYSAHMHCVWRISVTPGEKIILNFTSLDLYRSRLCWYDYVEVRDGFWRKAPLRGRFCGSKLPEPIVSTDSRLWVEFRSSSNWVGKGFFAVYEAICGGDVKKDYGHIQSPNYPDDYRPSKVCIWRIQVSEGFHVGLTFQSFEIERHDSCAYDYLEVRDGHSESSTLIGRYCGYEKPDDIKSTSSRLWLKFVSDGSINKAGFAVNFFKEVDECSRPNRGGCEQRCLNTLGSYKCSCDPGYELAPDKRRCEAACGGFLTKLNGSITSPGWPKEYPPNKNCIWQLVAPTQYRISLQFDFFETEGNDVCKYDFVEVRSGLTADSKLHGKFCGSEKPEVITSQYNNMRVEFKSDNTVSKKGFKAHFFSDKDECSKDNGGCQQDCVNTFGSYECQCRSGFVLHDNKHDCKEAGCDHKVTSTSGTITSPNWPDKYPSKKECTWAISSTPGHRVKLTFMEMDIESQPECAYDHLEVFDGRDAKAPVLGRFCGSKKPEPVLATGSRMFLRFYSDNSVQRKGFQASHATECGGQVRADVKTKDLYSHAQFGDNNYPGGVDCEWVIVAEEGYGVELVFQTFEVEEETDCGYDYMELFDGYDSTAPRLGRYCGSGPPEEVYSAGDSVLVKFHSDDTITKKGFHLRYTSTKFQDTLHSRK

[4] = target: T2, Bone morphogenetic protein 1; experiment: Inhibition of C-terminal FLAG-6x-His epitope tagged and N-terminal human RAGE signal sequence tagged human BMP1 (23 to 721 amino acids) expressed in CHO-E1A cells pre-incubated for 10 mins before promyostatin peptide substrate addition and measured after 30 mins using 50 nM BMP1 by FRET based assay; type: cell-based
Tolloid-like protein 1 = Tolloid-like protein 1 (Homo sapiens, UniProt O43897, I156V/N221S/V284A); experiment: Inhibition of recombinant human TLL1 I156V/N221S/V284A mutant expressed in CHOE1A cells pre-incubated for 10 mins before promyostatin peptide substrate addition and measured after 60 mins by FRET based assay; type: cell-based
Tolloid-like protein 1, sequence (O43897 148-1013 I156V/N221S/V284A limits assumed): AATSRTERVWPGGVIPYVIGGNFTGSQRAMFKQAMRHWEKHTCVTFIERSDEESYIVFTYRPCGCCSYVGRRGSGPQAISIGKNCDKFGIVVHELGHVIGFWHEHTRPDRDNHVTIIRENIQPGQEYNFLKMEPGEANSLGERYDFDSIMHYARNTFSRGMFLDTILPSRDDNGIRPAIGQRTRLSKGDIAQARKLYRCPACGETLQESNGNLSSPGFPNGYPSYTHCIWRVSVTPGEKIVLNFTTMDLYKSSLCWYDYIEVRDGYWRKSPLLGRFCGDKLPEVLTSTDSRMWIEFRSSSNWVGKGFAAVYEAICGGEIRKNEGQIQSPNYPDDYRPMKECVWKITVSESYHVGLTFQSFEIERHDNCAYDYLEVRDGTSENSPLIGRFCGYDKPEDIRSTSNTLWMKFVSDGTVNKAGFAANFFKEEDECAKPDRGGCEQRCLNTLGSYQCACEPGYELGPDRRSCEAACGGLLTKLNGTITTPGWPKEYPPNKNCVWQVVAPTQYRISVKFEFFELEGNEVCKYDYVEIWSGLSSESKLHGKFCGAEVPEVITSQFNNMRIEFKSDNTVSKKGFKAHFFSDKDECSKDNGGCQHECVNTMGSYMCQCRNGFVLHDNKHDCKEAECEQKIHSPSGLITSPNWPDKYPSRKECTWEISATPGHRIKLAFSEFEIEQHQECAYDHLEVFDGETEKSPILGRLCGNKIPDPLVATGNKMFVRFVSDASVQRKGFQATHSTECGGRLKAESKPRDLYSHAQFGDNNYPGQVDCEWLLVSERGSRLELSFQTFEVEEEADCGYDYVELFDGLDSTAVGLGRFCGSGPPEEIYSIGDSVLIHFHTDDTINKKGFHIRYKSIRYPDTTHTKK

IC50 (Tolloid-like protein 2)	IC50 [3]	IC50 [4]	IC50 (Tolloid-like protein 1)	Structure (SMILES)	IC50 [1]	IC50 [2]
< 0.631 µM	< 0.126 µM	< 0.251 µM	< 0.398 µM	CCCCC[C@@H](C(=O)NCNC(=O)c1cccc(-c2cc(OCC)cc(C(=O)O)c2)n1)[C@@H](CC)N(O)C=O	< 20 µM	< 1.58 µM
< 0.631 µM	< 0.126 µM	< 0.251 µM	< 0.398 µM	CCCCC[C@@H](C(=O)NCNC(=O)c1cccc(-c2ccc(CC(=O)N[C@@H](CC(=O)O)C(=O)O)c(OCC)c2)n1)[C@@H](CC)N(O)C=O	< 20 µM	< 1.58 µM
	< 0.126 µM	< 0.251 µM		CCCCC[C@@H](C(=O)NCNC(=O)c1cccc(-c2cc(OCC)cc(C(=O)NCCN)c2)n1)[C@@H](CC)N(O)C=O	< 20 µM	< 1.58 µM
< 0.631 µM	< 0.126 µM	< 0.251 µM	< 0.398 µM	CCCCC[C@H](CN(O)C=O)C(=O)NCNC(=O)c1cccc(-c2nnn[nH]2)c1	< 20 µM	
< 0.631 µM	< 0.126 µM	< 0.251 µM	< 0.398 µM	O=CN(O)C[C@@H](CC1CCCC1)C(=O)NCNC(=O)c1cccc(-c2ccc(C(F)(F)F)cc2)c1	< 20 µM	
< 0.631 µM	< 0.126 µM	< 0.251 µM	< 0.398 µM	CCCCC[C@H](CN(O)C=O)C(=O)NCNC(=O)c1cccc(-c2ccc(F)c(OC)c2)c1	< 20 µM	
< 0.631 µM	< 0.126 µM	< 0.251 µM	< 0.398 µM	CCCCC[C@H](CN(O)C=O)C(=O)NCNC(=O)c1cccc(-c2cc(OC)ccc2F)c1F	< 20 µM	
< 0.631 µM	< 0.126 µM	< 0.251 µM	< 0.398 µM	CCCCC[C@H](CN(O)C=O)C(=O)NCNC(=O)c1ccc(F)c(-c2ccccc2)n1	< 20 µM	
< 0.631 µM	< 0.126 µM	< 0.251 µM	< 0.398 µM	CCCCC[C@@H](C(=O)NCNC(=O)c1cccc(-c2ccc(C(=O)NCP(=O)(O)O)c(OCC)c2)n1)[C@@H](CC)N(O)C=O	< 20 µM	
< 0.631 µM	< 0.126 µM	< 0.251 µM	< 0.398 µM	CCCCC[C@@H](C(=O)NCNC(=O)c1cccc(-c2cc(OCC)cc(C(=O)O)c2O)n1)[C@@H](CC)N(O)C=O	< 20 µM	
< 0.631 µM	< 0.126 µM	< 0.251 µM	< 0.398 µM	CCCCC[C@H](CN(O)C=O)C(=O)NCNC(=O)c1cccc(-c2cccc(C(C)C)c2)c1	< 20 µM	
< 0.631 µM	< 0.126 µM	< 0.251 µM	< 0.398 µM	CCCCC[C@@H](C(=O)NCNC(=O)c1cccc(-c2cc(OCC(=O)O)cc(C(=O)O)c2)n1)[C@@H](CC)N(O)C=O	< 20 µM	
< 0.631 µM	< 0.126 µM	< 0.251 µM	< 0.398 µM	CCCCC[C@H](CN(O)C=O)C(=O)NCNC(=O)c1cccc(-c2ccccc2)c1	< 20 µM	
	< 0.126 µM	< 0.251 µM		CCOc1cc(-c2cccc(C(=O)NCNC(=O)[C@H](CCc3ccccc3)[C@@H](CC)N(O)C=O)n2)ccc1C(=O)O	< 20 µM	< 1.58 µM
< 0.631 µM	< 0.126 µM	< 0.251 µM	< 0.398 µM	CCCCC[C@H](CN(O)C=O)C(=O)NCNC(=O)c1cccc(-c2ccc(F)cc2F)n1	< 20 µM	
< 0.631 µM	< 0.126 µM	< 0.251 µM	< 0.398 µM	CCCCC[C@@H](C(=O)NCNC(=O)c1cccc(-c2ccc(OC)c(C(=O)O)c2)n1)[C@@H](CC)N(O)C=O	< 20 µM	
< 0.631 µM	< 0.126 µM	< 0.251 µM	< 0.398 µM	CCCCC[C@@H](C(=O)NCNC(=O)c1cccc(-c2cccc(S)c2)c1)[C@@H](CC)N(O)C=O	< 20 µM	
< 0.631 µM	< 0.126 µM	< 0.251 µM	< 0.398 µM	CCCCC[C@H](CN(O)C=O)C(=O)NCNC(=O)c1cc(C(F)(F)F)cc(-c2ccccc2)n1	< 20 µM	
< 0.631 µM	< 0.126 µM	< 0.251 µM	< 0.398 µM	CCCCC[C@H](CN(O)C=O)C(=O)NCNC(=O)c1cccc(-n2cc(C)cn2)c1	< 20 µM	
< 0.631 µM	< 0.126 µM	< 0.251 µM	< 0.398 µM	N#Cc1cccc(-c2cccc(C(=O)NCNC(=O)[C@H](CC3CCCC3)CN(O)C=O)c2)c1	< 20 µM	
< 0.631 µM	< 0.126 µM	< 0.251 µM	< 0.398 µM	CCCCC[C@H](CN(O)C=O)C(=O)NCNC(=O)c1cccc(-c2cccc(S(N)(=O)=O)c2)c1	< 20 µM	
< 0.631 µM	< 0.126 µM	< 0.251 µM	< 0.398 µM	CCCCC[C@H](CN(O)C=O)C(=O)NCNC(=O)c1cccc(-c2ccc(C(F)(F)F)cc2)n1	< 20 µM	
< 0.631 µM	< 0.126 µM	< 0.251 µM	< 0.398 µM	CCCCC[C@@H](C(=O)NCNC(=O)c1ccc(F)c(-c2ccc(C(=O)O)c(OCC)c2)n1)[C@@H](CC)N(O)C=O	< 20 µM	
< 0.631 µM	< 0.126 µM	< 0.251 µM	< 0.398 µM	CCCCC[C@@H](C(=O)NCNC(=O)c1cccc(-c2ccc(C(=O)NCP(=O)(O)O)cc2)n1)[C@@H](CC)N(O)C=O	< 20 µM	
< 0.631 µM	< 0.126 µM	< 0.251 µM	< 0.398 µM	CCCCC[C@@H](C(=O)NCNC(=O)c1cccc(-c2cc(OCC)cc(S(=O)(=O)O)c2)c1)[C@@H](CC)N(O)C=O	< 20 µM	
< 0.631 µM	< 0.126 µM	< 0.251 µM	< 0.398 µM	CCCCC[C@@H](C(=O)NCNC(=O)c1cccc(-c2ccc(C(=O)N(CC(=O)O)CC(=O)O)c(OCC)c2)n1)[C@@H](CC)N(O)C=O	< 20 µM	
< 0.631 µM	< 0.126 µM	< 0.251 µM	< 0.398 µM	CCCCC[C@H](CN(O)C=O)C(=O)NCNC(=O)c1cccc(-c2cccc(F)c2)c1	< 20 µM	
< 0.631 µM	< 0.126 µM	< 0.251 µM	< 0.398 µM	CCCCC[C@H](CN(O)C=O)C(=O)NCNC(=O)c1cccc(-c2cccc(C(N)=O)c2)c1	< 20 µM	
